The results in this text go back to patent publication US20120201749A1, “NP-1 Antagonists and Their Therapeutic Use” (priority 2009, published 2012).

One data set deals with NP-1 (Homo sapiens, UniProt O14786). The experiment in a line: Biotinylated-VEGF-A165 (bt-VEGF-A165) binding to NP-1. As to conditions: for inhibition at 3 µM: 3 μM compound, read-out: Screen (% inhibition at 3 μM); for inhibition at 30 µM: 30 μM compound, read-out: Screen (% inhibition at 30 μM). The gist of the method:
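Both formats: compound with bt-VEGF-A165 for 2 h at room temperature, detection via streptavidin-HRP at A450 (ref A595). Cell-based: Ad.NP-1-transfected DU145 cells, 2 nM tracer, nonspecific from 100-fold unlabelled VEGF-A165. Cell-free: NP-1-coated wells (3 μg/ml), 0.25 nM tracer, nonspecific from uncoated wells.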

The test system of data set [1] is human non-small-cell lung carcinoma A549 cells. Nature of the data set: Lung cancer in vivo study, A549 xenografts in nude mice. Here is the method:
For the efficacy study, human non-small-cell lung carcinoma A549 cells were cultured in growth medium RPMI 1640. The cells at 90% confluence were detached, counted and suspended in PBS to make the final concentration of cells 5×10^7/ml for inoculation.
The compound administration began two weeks after A549 cells were inoculated in female Balb/c nude mice. Compound 58 was dosed intraperitoneally at 80 mg/kg daily for a period of 2 weeks. Tumour volume was monitored by measuring the length and the width of the tumour using an electronic digital caliper (Fisher Scientific) daily for a period of 2 weeks. Tumour volumes were calculated using a formula (length×width^2/2). At the end of the experiment, tumours were dissected and weighed.

Each structure is given as a SMILES string. “And” between values parts separate entries of the source, which are not always exact repeats. Identical values can stand only once.

Chain of NP-1 (O14786 22-923): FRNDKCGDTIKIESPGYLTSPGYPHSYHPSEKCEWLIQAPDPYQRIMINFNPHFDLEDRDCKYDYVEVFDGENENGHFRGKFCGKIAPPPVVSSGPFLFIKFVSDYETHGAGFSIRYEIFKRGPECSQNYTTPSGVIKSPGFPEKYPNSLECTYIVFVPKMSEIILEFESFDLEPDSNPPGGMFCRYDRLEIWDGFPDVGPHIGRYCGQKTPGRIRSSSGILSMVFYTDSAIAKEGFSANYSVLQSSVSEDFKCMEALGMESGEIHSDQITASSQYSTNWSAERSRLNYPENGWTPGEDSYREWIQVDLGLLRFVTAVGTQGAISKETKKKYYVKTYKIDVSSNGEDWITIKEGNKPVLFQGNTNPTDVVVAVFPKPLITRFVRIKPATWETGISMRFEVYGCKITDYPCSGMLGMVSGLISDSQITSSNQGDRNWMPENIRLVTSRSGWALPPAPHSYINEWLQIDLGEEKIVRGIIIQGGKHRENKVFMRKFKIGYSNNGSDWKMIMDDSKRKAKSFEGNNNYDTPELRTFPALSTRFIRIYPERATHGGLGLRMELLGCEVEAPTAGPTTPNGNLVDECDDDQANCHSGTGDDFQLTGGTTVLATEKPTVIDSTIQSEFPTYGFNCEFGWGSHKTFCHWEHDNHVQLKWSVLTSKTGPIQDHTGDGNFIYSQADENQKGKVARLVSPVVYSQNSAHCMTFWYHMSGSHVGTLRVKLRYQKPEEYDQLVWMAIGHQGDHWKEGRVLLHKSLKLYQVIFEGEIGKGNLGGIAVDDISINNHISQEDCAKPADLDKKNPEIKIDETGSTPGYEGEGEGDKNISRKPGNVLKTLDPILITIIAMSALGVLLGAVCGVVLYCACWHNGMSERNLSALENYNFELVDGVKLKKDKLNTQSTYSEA

For `N=C(N)NCCC[C@H](NC(=O)c1sccc1NS(=O)(=O)c1cccc(NCc2csc(N3CCNCC3)n2)c1)C(=O)O` [Compound 58, (S)-5-guanidino-2-[(3-{3-[(2-piperazin-1-yl-thiazol-4-ylmethyl)-amino]-benzenesulfonylamino}-thiophene-2-carbonyl]-amino]-pentanoic acid], at NP-1, the IC50 turned out to be 159 nM, the inhibition at 3 µM is 72% and the inhibition at 30 µM is 96%. The “reduction of the rate of tumour growth” value in data set [1] (80 mg/kg intraperitoneally daily for 2 weeks, A549 tumours, p=0.017 by linear regression test) is 52% and 50%. In addition, the “tumour weight reduced by” value in data set [1] (80 mg/kg intraperitoneally daily for 2 weeks, tumours weighed at end of experiment, p=0.04 by Mann Whitney test) was 27%. Also, the “effect on rate of tumour growth (in words)” value in data set [1] (preclinical model of lung cancer) is “significantly reduced the rate of tumour growth”. In data set [1] (single daily dose for two weeks, murine model of lung cancer), the evidence of toxicity entry was “No evidence of toxicity”.

`N=C(N)NCCC[C@H](NC(=O)c1sccc1NS(=O)(=O)c1cc(-c2cccc(CN3CCC(N)CC3)c2)cc2c1OCC2)C(=O)O` [Compound 34, (S)-2-[(3-{5-[3-(4-Amino-piperidin-1-ylmethyl)-phenyl]-2,3-dihydro-benzofuran-7-sulfonylamino}-thiophene-2-carbonyl)-amino]-5-guanidino-pentanoic acid]: on NP-1, the inhibition at 3 µM amounted to 50% and the inhibition at 30 µM came to 94%.

Take `COc1ccccc1-c1nc(CNc2cccc(S(=O)(=O)Nc3ccsc3C(=O)N[C@@H](CCCNC(=N)N)C(=O)O)c2)no1` [Compound 69, (S)-5-Guanidino-2-{[3-(3-{[5-(2-methyoxy-phenyl)-[1,2,4]oxadiazol-3-ylmethyl]-amino}-benzenesulfonylamino)-thiophene-2-carbonyl]-amino}-pentanoic acid]: at NP-1, the inhibition at 3 µM stood at 37% and the inhibition at 30 µM was found to be 79%.

As to `N=C(N)NCCC[C@H](NC(=O)c1sccc1NS(=O)(=O)c1cc(-c2cccc(CNCc3ccc(N)nc3)c2)cc2c1OCC2)C(=O)O` [Compound 40, (S)-2-({3-[5-(3-{[(6-Amino-pyridin-3-ylmethyl)-amino]-methyl}-phenyl)-2,3-dihydro-benzofuran-7sulfonylamino]-thiophene-2-carbonyl}-amino)-5-guanidino-pentanoic acid], at NP-1, the inhibition at 3 µM was 56%.

Turning to `Cc1[nH]ncc1CCCNCc1cccc(-c2cc3c(c(S(=O)(=O)Nc4ccsc4C(=O)N[C@@H](CCCNC(=N)N)C(=O)O)c2)OCC3)c1` [Compound 41, (S)-5-Guanidino-2-({3-[5-(3-{[3-(5-methyl-1H-pyrazol-4-yl)-propylamino]-methyl}-phenyl)-2,3-dihydro-benzofuran-7-sulfonylamino]-thiophene-2-carbonyl}-amino)-pentanoic acid], the inhibition at 3 µM on NP-1 was found to be 52%.

For `N#Cc1cccc(NC(=O)CNc2cccc(S(=O)(=O)Nc3ccsc3C(=O)N[C@@H](CCCNC(=N)N)C(=O)O)c2)c1` [Compound 70, (S)-2-{[3-(3-{[(3-Cyano-phenylcarbamoyl)-methyl]-amino}-benzenesulfonylamino)-thiophene-2-carbonyl]-amino}-5-guanidino-pentanoic acid], on NP-1, the inhibition at 3 µM stood at 25% and the inhibition at 30 µM is 63%.

With `N=C(N)NCCC[C@H](NC(=O)c1sccc1NS(=O)(=O)c1cccc(NCc2csc(N3CCN(c4ncccn4)CC3)n2)c1)C(=O)O` [Compound 66, (S)-5-guanidino-2-{[3-(3-{[2-(4-pyrimidin-2-yl-piperazin-1-yl)-thiazol-4-ylmethyl]-amino}-benzenesulfonylamino)-thiophene-2-carbonyl]-amino}-pentanoic acid], at NP-1, the inhibition at 3 µM turned out to be 71% and the inhibition at 30 µM worked out at 93%.

`N=C(N)NCCC[C@H](NC(=O)c1sccc1NS(=O)(=O)c1cc(-c2cccc(CNCc3cc[nH]n3)c2)cc2c1OCC2)C(=O)O` [Compound 52, (S)-5-Guanidino-2-({3-[5-(3-{[(1H-pyrazol-3-ylmethyl)-amino]-methyl}-phenyl)-2,3-dihydro-benzofuran-7-sulfonylamino]-thiophene-2-carbonyl}-amino)-pentanoic acid]: the inhibition at 3 µM on NP-1 worked out at 77%.
